Values joined by “and” are separate entries in the source; they are usually repeats but may differ in a detail not shown here. Equal values may be shown once.
Experiments:
Assay type in all cases: biochemical
cathepsin B = assay: Protease activity in S. mansoni adult extract, cathepsin B substrates (continuous fluorometric assay); conditions: 1 μM gallinamide A, relative to uninhibited control, mean ± SD
From the text: (§1) We investigated whether gallinamide A inhibits the activity of the major proteases associated with proteolytic digestion in the adult schistosome gut. The digestive protease network includes the cysteine proteases cathepsins B, C, L from clan CA and legumain from clan CD, and an aspartic protease cathepsin D from clan AA.[11],[12] Their respective activities can be measured in protein extracts of S. mansoni using a kinetic assay with specific fluorogenic substrates. In addition, these activities can be attributed to particular proteases based on sensitivity to selective inhibitors[30]−[32] (Table 1). Accordingly, we exposed worm extracts to gallinamide A and analyzed the individual protease activities. Gallinamide A inhibited both the carboxydipeptidase (98%) and endopeptidase activities (94%) of cathepsin B as measured with the respective substrates, Abz–Phe–Arg–Val–Nph[15] and Cbz–Arg–Arg–AMC[33],[34] (Table 1). The activity measured with the Cbz–Phe–Arg–AMC substrate,[11],[13],[16],[33],[35] which can be cleaved by both cathepsins B and L, was inhibited by gallinamide A to a lesser extent (72%). […]
(§2) Proteolytic activities in S. mansoni adult extracts were measured in a continuous kinetic assay using the following peptidyl fluorogenic substrates (Bachem) or internally quenched FRET substrates (IOCB): 50 μM Cbz–Phe–Arg–AMC for cathepsins B and L,[13],[15] […]

cathepsins B and L = assay: Protease activity in S. mansoni adult extract, Cbz–Phe–Arg–AMC; conditions: 1 μM gallinamide A, endopeptidase, substrate Cbz–Phe–Arg–AMC, mean ± SD
From the text: as §1, §2

cathepsin C = target: T1, cathepsin C (Schistosoma mansoni, UniProt Q26563); assay: Protease activity in S. mansoni adult extract, Gly–Arg–AMC; conditions: 1 μM gallinamide A, exopeptidase (aminodipeptidase), substrate Gly–Arg–AMC, mean ± SD
T1 construct: from tissue; host or cells: soluble protein extract of mixed sex S. mansoni adults
T1 sequence (Q26563 218-454): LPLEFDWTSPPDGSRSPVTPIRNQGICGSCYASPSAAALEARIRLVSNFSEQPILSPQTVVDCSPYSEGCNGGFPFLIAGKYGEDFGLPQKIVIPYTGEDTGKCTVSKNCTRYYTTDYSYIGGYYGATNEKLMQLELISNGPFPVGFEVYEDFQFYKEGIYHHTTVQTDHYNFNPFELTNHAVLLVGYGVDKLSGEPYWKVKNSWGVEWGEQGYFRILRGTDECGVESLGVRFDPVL
From the text: as §1, §2

cathepsin D = assay: Protease activity in S. mansoni adult extract, FRET substrate; conditions: 1 μM gallinamide A, substrate Abz–Lys–Pro–Ala–Glu–Phe–Nph–Ala–Leu, in the presence of E-64, mean ± SD
From the text: as §1, §2

SMILES: CC[C@H](C)[C@@H](C(=O)O[C@@H](CC(C)C)C(=O)N[C@@H](CC(C)C)C(=O)N[C@@H](C)/C=C/C(=O)N1C(=O)C=C(OC)[C@@H]1C)N(C)C [gallinamide A]
- inhibition (%) (cathepsin B; endopeptidase activity, substrate Cbz–Arg–Arg–AMC): 94% and 93.7 ± 0.3%
- inhibition (%) (cathepsin B; exopeptidase (carboxydipeptidase) activity, substrate Abz–Phe–Arg–Val–Nph): 98.0 ± 2.2%
- inhibition (%) (cathepsins B and L): 72%
- inhibition (%) (cathepsins B and L; listed as Gallinamide A): 71.9 ± 2.0%
- inhibition (%) (cathepsin C): < 10%
- inhibition (%) (cathepsin C; listed as Gallinamide A): 2.8 ± 1.9%
- inhibition (%) (cathepsin D): < 10%
- inhibition (%) (cathepsin D; listed as Gallinamide A): 0.01 ± 1.54%

— article PMC11184554, “Nature-Inspired Gallinamides Are Potent Antischistosomal Agents: Inhibition of the Cathepsin B1 Protease Target and Binding Mode Analysis” (ACS Infectious Diseases, 2024)
